Source: US20040162247A1, “Therapeutic agent or osteoporosis comprising an active ingredient of quercetin derivatives” (priority 2000, published 2004)
Where “and” joins values, the source holds several entries; their conditions need not be identical. Identical values can stand only once.

Columns and labels:
[1] = rat, in vivo
Experimental: Female SD (Sprague-Dawley) rats, a model animal for type I osteoporosis occurring after menopause were employed for evaluating pharmacological effectiveness of quercetin. Female rats (10 weeks old) weighing 200 to 300 g, obtained from the Korea Research Institute of Chemical Technology were employed as experimental animals. Experiment was carried out by the procedure which comprises removing ovary, administration of agents to the each group of rats, and at certain days after ovariectomy, the rats were sacrificed and subjected to analyses including measurement of body weight, examination of internal organs, measurement of trabecular bone area, complete blood count, and biochemical analyses of plasma.
The Sham group, animals operated upon for the surgery as in the ovariectomized rats except for removing ovary, were employed to compare the changes caused solely by ovariectomy in control group which were ovariectomized but no agent was administered. Control group was employed to compare the changes caused by administration of agents in test group which were ovariectomized and administered with testing agents.
During the period of administration, blood was sampled once a week. After 9-week administration, entire blood was withdrawn with heparin treatment. Following complete blood count (CBC), the blood was centrifuged at 3,000 rpm for 20 minutes to obtain plasma which was stored at −70° C. until use. For measurement of bone mineral density, the lumbar spine L5 and L6, and right tibia were removed and stored separately in 4% (v/v) formalin solution.

ovariectomized rats [2] = assay: Trabecular bone area of lumbars in ovariectomized rats;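 for Change Rate (%) of TBA of lumbars, of control group: control group rats were ovariectomized and are not the sham group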; type: in vivo, Female SD (Sprague-Dawley) rats; settings: OVX rats, 9 weeks i.p. (E2 1 μg/kg/day; quercetin, genistein 10 mg/kg/day)
Experimental: (§1) Trabecular bone area (TBA) of lumbar and tibia removed from the rats of each group which was treated with various agents for 9 weeks were measured as follows: that is, using a digitalizer of quantitative image analysis system (Wild Leitz Co.), image of each trabecula was obtained on computer monitor by drawing a contour of the trabecula, and then, using a computer, calculated were average areas of trabeculae within a rectangle of 2×10^6 μm^2 area wherein the width is about ⅔ of the length of growth plate which located underneath of growth plate at proximity of tibia. Also, following the number of trabeculae within the rectangle were obtained, average area was multiplied by the number of trabeculae to obtain trabecular bone area of each sample bone, which was analyzed statistically (see: Table 5).
TBAs of lumbars removed from the animal treated with test agents for 9 weeks were measured employing the same method above (see: Table 6).

ovariectomized rats [3] = assay: Complete blood count in ovariectomized rats; type: in vivo, Female SD (Sprague-Dawley) rats; settings: rat, in vivo
Experimental: (§2) When test agents were administered, for a certain period of time before and after administration, 1.5 ml of blood was sampled from tail vein using a catheter (B.D Co.: 24 G) and subjected to complete blood count (Coulter Co.: JT) and biochemical analyses of plasma (Crone Co.: Airon® 200). During autopsy, blood was sampled from caudal venae cavae and subjected to the analyses above. And then, each sample was frozen to store for measurement of trabecular bone area of femur and examination of internal organs.
Complete blood count which reflects the condition and abnormality of the body was measured to find out abnormality in test animals caused by administrtion of agents. That is, to find out changes in hematopoiesis of test rats, measured were red blood cell (RBC) count, concentration of hemoglobin (Hb) and hematocrit (Ht) of-blood samples obtained from the rats prior to operation and the rats 10 weeks after administrating agents following operation, and to find out changes in immune system such as inflammation and necrosis of tissues, measured were white blood cell count, lymphocyte count, monocyte count, and granulocyte count (see: Table 7).

ovariectomized rats [4] = assay: Biochemical parameters in plasma of ovariectomized rats; type: in vivo, Female SD (Sprague-Dawley) rats; settings: rat, in vivo
Experimental: as §2
Since blood reflects the condition of body, safety of quercetin in the body was evaluated by measuring biochemical parameters: that is, blood samples were obtained from the rat prior to operation, one week after operation, and 10 weeks after operation, and measured were levels of alkaline phosphatase (ALP), calcium, inorganic phosphate, blood urea nitrogen (BUN), creatinin, total cholesterol, HDL-cholesterol and LDL-cholesterol (see: Table 8).

ovariectomized rats [5] = assay: Trabecular bone area of tibia in ovariectomized rats;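 for Change Rate (%) of TBA of tibia, of control group: control group rats were ovariectomized and are not the sham group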; type: in vivo, Female SD (Sprague-Dawley) rats; settings: OVX rats, 9 weeks i.p. (E2 1 μg/kg/day; quercetin, genistein 10 mg/kg/day)
Experimental: as §1

C[C@]12CC[C@@H]3c4ccc(O)cc4CC[C@H]3[C@@H]1CC[C@@H]2O [E2, 17β-estradiol]
Weight [1]: 228.51 ± 8.11 g | TBA (trabecular bone area) of lumbars (ovariectomized rats [2]): 89.16 ± 2.83 ×10^4 μm^2 | Change Rate (%) of TBA of lumbars, of control group (ovariectomized rats [2]; control group = 100): 132% and 132.04 ± 4.19 % | Concentration of hemoglobin(Hb) (ovariectomized rats [3]): 15.86 ± 0.24 g/dL | Hematocrit(Ht) (ovariectomized rats [3]): 43.11 ± 0.55% | Lymphocyte and granulocyte count, before versus after operation (in words) (ovariectomized rats [3]): rapid decrease | Lymphocyte count (ovariectomized rats [3]): 17.80 ± 1.72 ×10^3 cells/μl | Red blood cell(RBC) count (ovariectomized rats [3]): 7.33 ± 0.13 ×10^6 cells/μl | White blood cell count (ovariectomized rats [3]): 23.14 ± 1.50 ×10^3 cells/μl | White blood cell count, before versus after operation (in words) (ovariectomized rats [3]): decreased | Concentration of ALP in plasma (ovariectomized rats [4]): 196.01 ± 28.34 U/dL | Concentration of HDL-cholesterol in plasma (ovariectomized rats [4]): 52.30 ± 2.01 mg/dL | Concentration of LDL-cholesterol in plasma (ovariectomized rats [4]): 24.49 ± 1.63 mg/dL | Concentration of blood urea nitrogen (BUN) (ovariectomized rats [4]): 18.36 ± 1.01 mg/dL | Concentration of calcium in plasma (ovariectomized rats [4]): 10.86 ± 0.40 mg/dL | Concentration of creatinin in plasma (ovariectomized rats [4]): 0.55 ± 0.05 mg/dL | Concentration of inorganic phosphate in plasma (ovariectomized rats [4]): 6.90 ± 0.52 mg/dL | Concentration of total cholesterol in plasma (ovariectomized rats [4]): 76.79 ± 2.80 mg/dL | TBA (trabecular bone area) of tibia (ovariectomized rats [5]): 51.40 ± 2.28 ×10^4 μm^2 | Change Rate (%) of TBA of tibia, of control group (ovariectomized rats [5]; control group = 100): 148% and 148.46 ± 6.59%
